Test results published in the NIST ThermoML archive (doi:10.1016/j.jct.2015.06.023).
Numbers after ± are expanded uncertainties.

Assays:
[1] = Liquid; for mass density: 101.33 kPa, Vibrating tube method; for vapor or sublimation pressure: 363.2 K, Closed cell (Static) method
[2] = excess molar enthalpy (molar enthalpy of mixing); xn = mol fraction of the nth substance listed; conditions: 363.2 K, 100 kPa, Liquid, Flow calorimetry
[3] = activity coefficient (dimensionless); of the first substance listed, at infinite dilution; xn = mol fraction of the nth substance listed; conditions: 100 kPa, Liquid, Chromatography, x1 = 0

CCCCCC[n+]1ccccc1.O=S(=O)([N-]S(=O)(=O)C(F)(F)F)C(F)(F)F [1-hexylpyridinium bis(trifluromethylsulfonyl)imide]
[1]
Conditions | mass density [kg/m3]
293.15 K | 1389.16 ± 1.1
298.15 K | 1384.56 ± 1.1
299.15 K | 1383.67 ± 1.1
303.15 K | 1380.22 ± 1.1
313.15 K | 1371.26 ± 1.1
323.15 K | 1362.38 ± 1.1
333.15 K | 1353.54 ± 1.1
343.15 K | 1344.76 ± 1.1
353.15 K | 1336.02 ± 1.1

CCCCCC[n+]1ccccc1.O=S(=O)([N-]S(=O)(=O)C(F)(F)F)C(F)(F)F [1-hexylpyridinium bis(trifluromethylsulfonyl)imide] + CCCCO
[2]
Conditions | excess molar enthalpy [kcal/mol]
x2 = 0.043 | 0.0722 ± 0.00502
x2 = 0.083 | 0.14 ± 0.00789
x2 = 0.157 | 0.258 ± 0.0134
x2 = 0.222 | 0.356 ± 0.0182
x2 = 0.282 | 0.436 ± 0.0222
x2 = 0.384 | 0.55 ± 0.0287
x2 = 0.469 | 0.619 ± 0.0311
x2 = 0.572 | 0.661 ± 0.0335
x2 = 0.655 | 0.652 ± 0.0335
x2 = 0.743 | 0.594 ± 0.0311
x2 = 0.812 | 0.505 ± 0.0263
x2 = 0.868 | 0.399 ± 0.0206
x2 = 0.914 | 0.284 ± 0.0153
x2 = 0.952 | 0.168 ± 0.0108
x2 = 0.985 | 0.0549 ± 0.00741

CCCCCC[n+]1ccccc1.O=S(=O)([N-]S(=O)(=O)C(F)(F)F)C(F)(F)F [1-hexylpyridinium bis(trifluromethylsulfonyl)imide] + CCCO
[2]
Conditions | excess molar enthalpy [kcal/mol]
x2 = 0.052 | 0.0851 ± 0.0055
x2 = 0.1 | 0.165 ± 0.00884
x2 = 0.185 | 0.299 ± 0.0155
x2 = 0.259 | 0.402 ± 0.0206
x2 = 0.324 | 0.483 ± 0.0239
x2 = 0.432 | 0.589 ± 0.0287
x2 = 0.519 | 0.643 ± 0.0335
x2 = 0.621 | 0.661 ± 0.0335
x2 = 0.699 | 0.633 ± 0.0311
x2 = 0.779 | 0.56 ± 0.0287
x2 = 0.841 | 0.462 ± 0.0237
x2 = 0.889 | 0.358 ± 0.0186
x2 = 0.928 | 0.251 ± 0.0141
x2 = 0.961 | 0.146 ± 0.01
x2 = 0.988 | 0.0477 ± 0.00765

c1ccccc1 [benzene] + CCCCCC[n+]1ccccc1.O=S(=O)([N-]S(=O)(=O)C(F)(F)F)C(F)(F)F
[3]
Conditions | activity coefficient
303.2 K | 0.639 ± 0.039
313.2 K | 0.655 ± 0.039
323.2 K | 0.627 ± 0.038
333.2 K | 0.657 ± 0.039
343.2 K | 0.605 ± 0.037

CCCCO [butan-1-ol]
Conditions | vapor or sublimation pressure [kPa]
[1] | 34.47 ± 0.54

CCCCO [butan-1-ol] + CCCCCC[n+]1ccccc1.O=S(=O)([N-]S(=O)(=O)C(F)(F)F)C(F)(F)F
[3]
Conditions | activity coefficient
303.2 K | 2.74 ± 0.16
313.2 K | 1.72 ± 0.1
323.2 K | 1.59 ± 0.091
333.2 K | 1.42 ± 0.08
343.2 K | 1.25 ± 0.069

C1CCCCC1 [cyclohexane] + CCCCCC[n+]1ccccc1.O=S(=O)([N-]S(=O)(=O)C(F)(F)F)C(F)(F)F
[3]
Conditions | activity coefficient
303.2 K | 5.19 ± 0.31
313.2 K | 4.86 ± 0.29
323.2 K | 4.68 ± 0.28
333.2 K | 4.41 ± 0.26
343.2 K | 4.3 ± 0.26

CCO [ethanol] + CCCCCC[n+]1ccccc1.O=S(=O)([N-]S(=O)(=O)C(F)(F)F)C(F)(F)F
[3]
Conditions | activity coefficient
303.2 K | 1.64 ± 0.094
313.2 K | 1.35 ± 0.075
323.2 K | 1.28 ± 0.071
333.2 K | 1.13 ± 0.061
343.2 K | 0.996 ± 0.053

CCCO [propan-1-ol]
Conditions | vapor or sublimation pressure [kPa]
[1] | 76.56 ± 0.69

CCCO [propan-1-ol] + CCCCCC[n+]1ccccc1.O=S(=O)([N-]S(=O)(=O)C(F)(F)F)C(F)(F)F
[3]
Conditions | activity coefficient
303.2 K | 1.98 ± 0.12
313.2 K | 1.49 ± 0.085
323.2 K | 1.47 ± 0.084
333.2 K | 1.26 ± 0.07
343.2 K | 1.15 ± 0.063

Cc1ccccc1 [toluene] + CCCCCC[n+]1ccccc1.O=S(=O)([N-]S(=O)(=O)C(F)(F)F)C(F)(F)F
[3]
Conditions | activity coefficient
303.2 K | 0.828 ± 0.046
313.2 K | 0.868 ± 0.047
323.2 K | 0.82 ± 0.045
333.2 K | 0.847 ± 0.047
343.2 K | 0.882 ± 0.048
